Source: the supplement of paper PMC10307832

These cell lines were tested with C[C@@H](Oc1cc(-c2cnn(C3CCNCC3)c2)cnc1N)c1c(Cl)ccc(F)c1Cl [Crizotinib] + CS(=O)(=O)N1CCN(Cc2cc3nc(-c4cccc5[nH]ncc45)nc(N4CCOCC4)c3s2)CC1 [Pictilisib] (partner 1 µM) (assay: relative viability (nuclei count vs DMSO), 5 days (fraction); higher = more cells survive). Details: first compound 0.01 µM.
Outline: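 For relative viability, nuclei counts in treated wells were divided by those in vehicle wells. Lung cancer cell lines had been pin-tool dosed in 1536-well plates the day after seeding and cultured for 5 days, then fixed and stained in one step (final 0.05% Triton X-100, 1% formaldehyde, 1 ug/ml Hoechst) and imaged at 4×. Doses were one drug alone or a fixed anchor-drug dose plus five library-drug doses (not always all listed) in √10 steps, and values are duplicate-plate medians.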
201T was tested, and the relative viability was 0.65. For A549, the relative viability was 0.558. Cell Line A-427 has a relative viability of 0.529. Work on ABC-1 yielded a relative viability of 0.54. BEN showed a relative viability of 0.608. CAL-12T showed a relative viability of 0.345. With COR-L23 the relative viability was 0.695. With COR-L 105 the relative viability was 0.353. Calu-6 gave a relative viability of 0.881. ChaGo-K-1 was tested, and the relative viability was 0.736. Cell Line EBC-1 has a relative viability of 0.378. With EKVX the relative viability was 0.406. EMC-BAC-2 gave a relative viability of 0.514. EPLC-272H was tested, and the relative viability was 0.287. H3255 gave a relative viability of 0.36. HARA gave a relative viability of 0.351. Cell Line HCC-15 has a relative viability of 0.622. HCC-44 gave a relative viability of 0.464. With HCC-78 the relative viability was 0.204. Work on HCC-366 yielded a relative viability of 0.101. Work on HCC-827 yielded a relative viability of 1.1. HOP-62 was tested, and the relative viability was 0.469. IA-LM was tested, and the relative viability was 0.34. For LC-2-ad, the relative viability was 0.473. For LCLC-97TM1, the relative viability was 0.205. LCLC-103H showed a relative viability of 0.547. With LK-2 the relative viability was 0.51. LOU-NH91 gave a relative viability of 0.45. Work on LU99A yielded a relative viability of 0.261. LXF-289 showed a relative viability of 0.757. With NCI-H1299 the relative viability was 0.827. For NCI-H1563, the relative viability was 0.527. NCI-H1703 showed a relative viability of 0.286. NCI-H1792 showed a relative viability of 0.266.

Same assay, conditions: first compound 0.03162 µM
In the case of 201T, the relative viability is reported as 0.74. A549 showed a relative viability of 0.439. A-427 showed a relative viability of 0.655. For ABC-1, the relative viability was 0.781. BEN showed a relative viability of 0.492. For CAL-12T, the relative viability was 0.472. With COR-L23 the relative viability was 0.747. COR-L 105 was tested, and the relative viability was 0.386. Cell Line Calu-6 has a relative viability of 0.942. Work on ChaGo-K-1 yielded a relative viability of 0.651. In the case of EBC-1, the relative viability is reported as 0.215. In the case of EKVX, the relative viability is reported as 0.419. EMC-BAC-2 showed a relative viability of 0.536. EPLC-272H was tested, and the relative viability was 0.365. H3255 was tested, and the relative viability was 0.486. HARA showed a relative viability of 0.441. For HCC-15, the relative viability was 0.69. With HCC-44 the relative viability was 0.578. HCC-78 was tested, and the relative viability was 0.206. HCC-366 was tested, and the relative viability was 0.141. HCC-827 gave a relative viability of 1.03. HOP-62 showed a relative viability of 0.625. For IA-LM, the relative viability was 0.331. Cell Line LC-2-ad has a relative viability of 0.426. LCLC-97TM1 gave a relative viability of 0.18. LCLC-103H gave a relative viability of 0.65. Work on LK-2 yielded a relative viability of 0.59. Work on LOU-NH91 yielded a relative viability of 0.531. LU99A was tested, and the relative viability was 0.327. With LXF-289 the relative viability was 0.803. Work on NCI-H1299 yielded a relative viability of 0.647. Work on NCI-H1563 yielded a relative viability of 0.594. NCI-H1703 was tested, and the relative viability was 0.224. Cell Line NCI-H1792 has a relative viability of 0.286.

Same assay, conditions: first compound 0.1 µM
201T showed a relative viability of 0.723. With A549 the relative viability was 0.521. With A-427 the relative viability was 0.668. Cell Line ABC-1 has a relative viability of 0.588. BEN gave a relative viability of 0.52. With CAL-12T the relative viability was 0.466. With COR-L23 the relative viability was 0.705. COR-L 105 was tested, and the relative viability was 0.39. In the case of ChaGo-K-1, the relative viability is reported as 0.825. Work on EBC-1 yielded a relative viability of 0.159. Work on EKVX yielded a relative viability of 0.463. In the case of EMC-BAC-2, the relative viability is reported as 0.527. With EPLC-272H the relative viability was 0.327. In the case of H3255, the relative viability is reported as 0.533. HARA was tested, and the relative viability was 0.262. HCC-15 was tested, and the relative viability was 0.722. HCC-44 showed a relative viability of 0.538. In the case of HCC-78, the relative viability is reported as 0.205. For HCC-366, the relative viability was 0.183. In the case of HCC-827, the relative viability is reported as 0.943. HOP-62 was tested, and the relative viability was 0.779. In the case of IA-LM, the relative viability is reported as 0.353. LC-2-ad was tested, and the relative viability was 0.461. LCLC-97TM1 was tested, and the relative viability was 0.182. LCLC-103H showed a relative viability of 0.669. With LK-2 the relative viability was 0.492. With LOU-NH91 the relative viability was 0.618. With LU99A the relative viability was 0.348. With LXF-289 the relative viability was 0.726. With NCI-H1299 the relative viability was 0.728. With NCI-H1563 the relative viability was 0.628. Work on NCI-H1703 yielded a relative viability of 0.236. In the case of NCI-H1792, the relative viability is reported as 0.284.

Same assay, conditions: first compound 0.3162 µM
For 201T, the relative viability was 0.648. A549 showed a relative viability of 0.543. ABC-1 was tested, and the relative viability was 0.743. Work on BEN yielded a relative viability of 0.581. For COR-L23, the relative viability was 0.771. With COR-L 105 the relative viability was 0.354. Calu-6 showed a relative viability of 0.937. EBC-1 showed a relative viability of 0.202. With EKVX the relative viability was 0.453. EMC-BAC-2 gave a relative viability of 0.305. With EPLC-272H the relative viability was 0.3. H3255 was tested, and the relative viability was 0.468. Cell Line HARA has a relative viability of 0.511. HCC-15 was tested, and the relative viability was 0.391. Cell Line HCC-44 has a relative viability of 0.665. Work on HCC-78 yielded a relative viability of 0.167. In the case of HCC-366, the relative viability is reported as 0.11. HCC-827 was tested, and the relative viability was 0.96. HOP-62 was tested, and the relative viability was 0.342. In the case of IA-LM, the relative viability is reported as 0.343. Cell Line LCLC-97TM1 has a relative viability of 0.128. In the case of LCLC-103H, the relative viability is reported as 0.583. LK-2 gave a relative viability of 0.645. Cell Line LOU-NH91 has a relative viability of 0.515. In the case of LU99A, the relative viability is reported as 0.336. With LXF-289 the relative viability was 0.757. For NCI-H1299, the relative viability was 0.718. Work on NCI-H1563 yielded a relative viability of 0.555. Cell Line NCI-H1703 has a relative viability of 0.273. In the case of NCI-H1792, the relative viability is reported as 0.274.

Same assay, conditions: first compound 1 µM
Cell Line 201T has a relative viability of 0.678. A549 gave a relative viability of 0.53. A-427 was tested, and the relative viability was 0.675. ABC-1 gave a relative viability of 0.728. Cell Line BEN has a relative viability of 0.576. Work on CAL-12T yielded a relative viability of 0.355. Cell Line COR-L23 has a relative viability of 0.775. With COR-L 105 the relative viability was 0.403. In the case of Calu-6, the relative viability is reported as 0.865. Cell Line ChaGo-K-1 has a relative viability of 0.567. EBC-1 was tested, and the relative viability was 0.198. In the case of EKVX, the relative viability is reported as 0.47. In the case of EMC-BAC-2, the relative viability is reported as 0.52. For EPLC-272H, the relative viability was 0.299. For H3255, the relative viability was 0.456. HARA gave a relative viability of 0.46. With HCC-15 the relative viability was 0.687. For HCC-44, the relative viability was 0.503. HCC-78 was tested, and the relative viability was 0.204. HCC-366 showed a relative viability of 0.17. HCC-827 showed a relative viability of 0.961. HOP-62 was tested, and the relative viability was 0.624. Work on IA-LM yielded a relative viability of 0.305. With LC-2-ad the relative viability was 0.44.
